Measurements taken from patent US11452717B2, “Small molecule activators of nicotinamide phosphoribosyltransferase (NAMPT) and uses thereof” (Sanford Burnham Prebys Medical Discovery Institute, priority 2017, dated 2022).

Each molecule was assayed against NAMPT enzyme (Homo sapiens (Human), UniProt P43490) (assay: Enzyme Assay and NMN Detection (NAMPT reaction, fluorescence detection of NMN)). Conditions: Table B-1; NAMPT activation, NMN formation.
Type: biochemical
Procedure, shortened: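 NMN formed was read at ex380/em460 after acetophenone/KOH derivatization and formic acid addition, using a same-day calibration curve. Final conditions: NAMPT 16 nM, nicotinamide 5 uM, PRPP 6.25 uM, ATP 120 uM, pyrophosphatase 0.04 U/ml, pH 7.5 HEPES buffer with MgCl2 and TCEP, 2 h at room temperature.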

Chain of NAMPT enzyme (P43490 whole entry, species assumed): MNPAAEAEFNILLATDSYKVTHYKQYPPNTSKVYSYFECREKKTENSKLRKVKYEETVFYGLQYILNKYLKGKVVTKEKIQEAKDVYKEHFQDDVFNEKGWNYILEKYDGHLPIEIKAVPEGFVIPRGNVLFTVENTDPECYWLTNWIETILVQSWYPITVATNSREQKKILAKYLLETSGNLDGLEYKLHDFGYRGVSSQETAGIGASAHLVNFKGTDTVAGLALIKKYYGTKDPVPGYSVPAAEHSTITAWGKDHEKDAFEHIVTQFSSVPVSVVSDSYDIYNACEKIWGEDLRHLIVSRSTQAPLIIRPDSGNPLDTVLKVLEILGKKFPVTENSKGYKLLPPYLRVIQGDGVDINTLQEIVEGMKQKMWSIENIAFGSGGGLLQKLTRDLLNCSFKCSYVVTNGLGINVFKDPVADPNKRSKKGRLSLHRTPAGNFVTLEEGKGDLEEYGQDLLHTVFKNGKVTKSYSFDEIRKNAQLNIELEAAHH

Row | SMILES | EC50 [nM]
1 | O=C(NCc1cn[nH]c1)Nc1ccc(S(=O)(=O)NCc2ccccc2Cl)cc1 [N-(2-Chloro-benzyl)-4-[3-(1H-pyrazol-4-ylmethyl)-ureido]-benzenesulfonamide] | < 100
2 | O=C(NCc1cnco1)Nc1ccc(NS(=O)(=O)c2ccccc2)cc1 [N-[4-(3-Oxazol-5-ylmethyl-ureido)-phenyl]-benzenesulfonamide] | 100 to 2000

Now from value to molecule:

Row | EC50 [nM] | SMILES
3 | > 20000 | COc1ccc(Cn2cc(CNC(=O)Nc3ccc(NS(=O)(=O)c4ccccc4)cc3)cn2)cc1 [N-(4-{3-[1-(4-Methoxy-benzyl)-1H-pyrazol-4-ylmethyl]-ureido}-phenyl)-benzenesulfonamide]
4 | 100 to 2000 | COc1ccc(NC(=O)c2ccc(NC(=O)NCc3cn[nH]c3)cc2)cc1 [4-(3-((1H-pyrazol-4-yl)methyl)ureido)-N-(4-methoxyphenyl)benzamide]
5 | < 100 | O=C(NCc1cn[nH]c1)Nc1ccc(NS(=O)(=O)Cc2ccccc2)cc1 [N-(4-(3-((1H-pyrazol-4-yl)methyl)ureido)phenyl)-1-phenylmethanesulfonamide]

Same assay, conditions: Table B-2; NAMPT activation, NMN formation

Row | SMILES | EC50 [nM]
6 | COc1ccc(S(=O)(=O)c2ccc(NC(=O)NCc3ccncc3)cc2)cc1 [1-[4-(4-Methoxy-benzenesulfonyl)-phenyl]-3-pyridin-4-ylmethyl-urea] | 100 to 2000
7 | O=C(NCc1ccncc1)Nc1ccc(C(=O)Nc2ccc3c(c2)OCO3)cc1 [N-(benzo[d][1,3]dioxol-5-yl)-4-(3-(pyridin-4-ylmethyl)ureido)benzamide] | 5000 to 20000
8 | O=C(NCc1ccncc1)Nc1ccc(S(=O)(=O)N2CCCC2)cc1 [Pyridin-4-ylmethyl-3-[4-(pyrrolidine-1-sulfonyl)-phenyl]-urea] | 100 to 2000
9 | O=C(NCc1ccncc1)Nc1ccc(C(F)(F)F)cc1 [1-(Pyridin-4-ylmethyl)-3-(4-(trifluoromethyl)phenyl)urea] | 5000 to 20000
10 | O=C(NCc1ccncc1)Nc1ccc(C(=O)Nc2ccccc2OC(F)(F)F)cc1 [4-(3-(Pyridin-4-ylmethyl)ureido)-N-(2-(trifluoromethoxy)phenyl)benzamide] | 100 to 2000
11 | O=C(NCc1ccncc1)Nc1cccc(S(=O)(=O)NCC2CCC2)c1 [N-(cyclobutylmethyl)-3-(3-(pyridin-4-ylmethyl)ureido)benzenesulfonamide] | > 20000
12 | COCCNS(=O)(=O)c1ccc(NC(=O)NCc2ccncc2)cc1 [N-(2-Methoxy-ethyl)-4-(3-pyridin-4-ylmethyl-ureido)-benzenesulfonamide] | 100 to 2000
13 | O=C(NCc1ccncc1)Nc1ccc(C(=O)NC2CCC2)cc1 [N-cyclobutyl-4-(3-(pyridin-4-ylmethyl)ureido)benzamide] | 5000 to 20000
14 | CCOC(=O)c1ccc(NC(=O)NCc2ccnc(Cl)c2)cc1 [Ethyl 4-(3-((2-chloropyridin-4-yl)methyl)ureido)benzoate] | > 20000
15 | O=C(NCc1ccncc1)Nc1ccc(NS(=O)(=O)Cc2cccc(Cl)c2)cc1 [1-(3-chlorophenyl)-N-(4-(3-(pyridin-4-ylmethyl)ureido)phenyl)methanesulfonamide] | < 100
16 | O=C(NCc1ccncc1)Nc1ccc(S(=O)(=O)N2CCc3cccc(Cl)c3C2)cc1 [1-[4-(8-Chloro-3,4-dihydro-1H-isoquinoline-2-sulfonyl)-phenyl]-3-pyridin-4-ylmethyl-urea] | < 100
17 | O=C(NCc1ccncc1)Nc1ccc(S(=O)(=O)NCc2ccc(OC(F)(F)F)cc2)cc1 [4-(3-Pyridin-4-ylmethyl-ureido)-N-(4-trifluoromethoxy-benzyl)-benzenesulfonamide] | 100 to 2000
18 | O=C(NCc1ccncc1)Nc1ccc(C(=O)NCCN2CCCC2)cc1 [4-(3-(Pyridin-4-ylmethyl)ureido)-N-(2-(pyrrolidin-1-yl)ethyl)benzamide] | 2000 to 5000
19 | O=C(NCc1ccncc1)Nc1ccc(S(=O)(=O)Nc2ccccc2)cc1 [N-Phenyl-4-(3-pyridin-4-ylmethyl-ureido)-benzenesulfonamide] | 100 to 2000
20 | CN(C1CCCCC1)S(=O)(=O)c1ccc(NC(=O)NCc2ccncc2)cc1 [N-Cyclohexyl-N-methyl-4-(3-pyridin-4-ylmethyl-ureido)-benzenesulfonamide] | 100 to 2000
21 | O=C(NCc1ccncc1)Nc1cccc(S(=O)(=O)NCc2ccccc2)c1 [N-benzyl-3-(3-(pyridin-4-ylmethyl)ureido)benzenesulfonamide] | 5000 to 20000
22 | O=C(NCc1ccncc1)Nc1ccc(S(=O)(=O)N(Cc2ccccc2)c2ccccc2)cc1 [N-Benzyl-N-phenyl-4-(3-pyridin-4-ylmethyl-ureido)-benzenesulfonamide] | 100 to 2000

The next lines start with the values.

Row | EC50 [nM] | SMILES
23 | < 100 | O=C(NCc1ccncc1)Nc1ccc(S(=O)(=O)N(Cc2ccccc2)CC(F)(F)F)cc1 [N-Benzyl-4-(3-pyridin-4-ylmethyl-ureido)-N-(2,2,2-trifluoro-ethyl)-benzenesulfonamide]
24 | < 100 | CN(Cc1ccccc1OC(F)(F)F)S(=O)(=O)c1ccc(NC(=O)NCc2ccncc2)cc1 [N-Methyl-4-(3-pyridin-4-ylmethyl-ureido)-N-(2-trifluoromethoxy-benzyl)-benzenesulfonamide]
25 | 100 to 2000 | O=C(NCc1ccncc1)Nc1ccc(S(=O)(=O)NCc2cccc(OC(F)(F)F)c2)cc1 [4-(3-Pyridin-4-ylmethyl-ureido)-N-(3-trifluoromethoxy-benzyl)-benzenesulfonamide]
26 | 100 to 2000 | CN(CCO)S(=O)(=O)c1ccc(NC(=O)NCc2ccncc2)cc1 [N-(2-Hydroxy-ethyl)-N-methyl-4-(3-pyridin-4-ylmethyl-ureido)-benzenesulfonamide]
27 | 2000 to 5000 | O=C(NCc1ccncc1)Nc1ccc(C(=O)NCCN2CCCCC2)cc1 [N-(2-(piperidin-1-yl)ethyl)-4-(3-(pyridin-4-ylmethyl)ureido)benzamide]
28 | 100 to 2000 | CN(C)CCNS(=O)(=O)c1ccc(NC(=O)NCc2ccncc2)cc1 [N-(2-Dimethylamino-ethyl)-4-(3-pyridin-4-ylmethyl-ureido)-benzenesulfonamide]
29 | 2000 to 5000 | COCCNC(=O)c1ccc(NC(=O)NCc2ccncc2)cc1 [N-(2-methoxyethyl)-4-(3-(pyridin-4-ylmethyl)ureido)benzamide]

Same assay, conditions: Table B-3; NAMPT activation, NMN formation

Row | EC50 [nM] | SMILES
30 | > 20000 | CCOC(=O)c1ccc(N2CCN(Cc3ccncc3)C2=O)cc1 [4-(2-Oxo-3-pyridin-4-ylmethyl-imidazolidin-1-yl)-benzoic acid ethyl ester]
31 | > 20000 | CCOC(=O)c1ccc(NC(=O)NCc2ccccc2)cc1 [Ethyl 4-(3-benzylureido)benzoate]
32 | > 20000 | O=C(O)c1ccc(N2CCN(Cc3ccncc3)C2=O)cc1 [4-(2-oxo-3-pyridin-4-ylmethyl-imidazolidin-1-yl)-benzoic acid]

Same assay, conditions: Table B-4; NAMPT activation, NMN formation

Row | SMILES | EC50 [nM]
33 | Cn1nc(-c2ccc(NC(=O)NCc3cn[nH]c3)cc2)c2cc(F)ccc21 [1-[4-(5-Fluoro-1-methyl-1H-indazol-3-yl)-phenyl]-3-(1H-pyrazol-4-ylmethyl)-urea] | 100 to 2000
34 | COc1ccc2c(c1)c(-c1ccc(NC(=O)NCc3cn[nH]c3)cc1)nn2C [1-[4-(5-Methoxy-1-methyl-1H-indazol-3-yl)-phenyl]-3-(1H-pyrazol-4-ylmethyl)-urea] | 100 to 2000

Second part, the molecule after the results:

Row | EC50 [nM] | SMILES
35 | 100 to 2000 | O=C(NCc1cn[nH]c1)Nc1ccc(S(=O)(=O)c2cccnc2)cc1 [1-(1H-Pyrazol-4-ylmethyl)-3-[4-(pyridine-3-sulfonyl)-phenyl]-urea]
36 | 100 to 2000 | COc1cccc(-c2csc(Nc3ccc(NC(=O)NCc4cn[nH]c4)cc3)n2)c1 [1-((1H-Pyrazol-4-yl)methyl)-3-(4-((4-(3-methoxyphenyl)thiazol-2-yl)amino)phenyl)urea]
37 | 100 to 2000 | Cc1ccc(S(=O)(=O)c2ccc(NC(=O)NCc3cn[nH]c3)cc2)cc1 [1-(1H-Pyrazol-4-ylmethyl)-3-[4-(toluene-4-sulfonyl)-phenyl]-urea]

Same assay, conditions: Table B-5; NAMPT activation, NMN formation

Row | SMILES | EC50 [nM]
38 | O=C(NCc1cnco1)Nc1ccc(S(=O)(=O)c2cn[nH]c2)cc1 [1-(4-((1H-pyrazol-4-yl)sulfonyl)phenyl)-3-(oxazol-5-ylmethyl)urea] | 100 to 2000
39 | COc1ccc2c(c1)c(-c1ccc(NC(=O)NCc3cnco3)cc1)nn2C [1-[4-(5-Methoxy-1-methyl-1H-indazol-3-yl)-phenyl]-3-oxazol-5-ylmethyl-urea] | > 20000
40 | Cc1cccc(S(=O)(=O)c2ccc(NC(=O)NCc3cnco3)cc2)c1 [1-Oxazol-5-ylmethyl-3-[4-(toluene-3-sulfonyl)-phenyl]-urea] | 100 to 2000

Next, values leading:

Row | EC50 [nM] | SMILES
41 | 2000 to 5000 | Cn1cc(S(=O)(=O)c2ccc(NC(=O)NCc3cnco3)cc2)cn1 [1-[4-(1-Methyl-1H-pyrazole-4-sulfonyl)-phenyl]-3-oxazol-5-ylmethyl-urea]
42 | 2000 to 5000 | CN1CCC(S(=O)(=O)c2ccc(NC(=O)NCc3cnco3)cc2)CC1 [1-[4-(1-Methyl-piperidine-4-sulfonyl)-phenyl]-3-oxazol-5-ylmethyl-urea]

Same assay, conditions: Table B-6; NAMPT activation, NMN formation

Row | SMILES | EC50 [nM]
43 | COc1ccc(-c2ccccc2S(=O)(=O)c2ccc(NC(=O)NCc3ccncc3)cc2)cc1 [1-[4-(4′-Methoxy-biphenyl-2-sulfonyl)-phenyl]-3-pyridin-4-ylmethyl-urea] | 5000 to 20000
44 | O=C(NCc1ccncc1)Nc1ccc(S(=O)(=O)c2ccccc2F)cc1 [1-(4-((2-Fluorophenyl)sulfonyl)phenyl)-3-(pyridin-4-ylmethyl)urea] | 100 to 2000
45 | O=C(NCc1ccncc1)Nc1ccc(S(=O)(=O)c2cc(F)cc(F)c2)cc1 [1-[4-(3,5-Difluoro-benzenesulfonyl)-phenyl]-3-pyridin-4-ylmethyl-urea] | 100 to 2000
46 | Cc1ccc(CS(=O)(=O)Nc2ccc(NC(=O)NCc3ccncc3)cc2)cc1 [N-[4-(3-Pyridin-4-ylmethyl-ureido)-phenyl]-C-p-tolyl-methanesulfonamide] | < 100

Further lines, results first:

Row | EC50 [nM] | SMILES
47 | 5000 to 20000 | O=C(NCc1ccncc1)Nc1ccc(-c2nc3ccccc3s2)cc1 [1-(4-(Benzo[d]thiazol-2-yl)phenyl)-3-(pyridin-4-ylmethyl)urea]
48 | 100 to 2000 | Cn1nc(-c2ccc(NC(=O)NCc3ccncc3)cc2)c2ccncc21 [1-(4-(1-Methyl-1H-pyrazolo[3,4-c]pyridin-3-yl)phenyl)-3-(pyridin-4-ylmethyl)urea]
